For assay [1], the target named is human PTPN1 (1-435) (Homo sapiens (Human), UniProt P18031). Kind of assay: Human PTPN1 Biochemical Assay. The conditions noted are these: DiFMUP substrate, read-out: PTP1B IC50. As for the experimental part:
Human PTPN1 Biochemical Assay
Test compounds were dissolved in DMSO, and 10-point serial 3-fold dilution series in DMSO were prepared in Echo Qualified 384-well Polypropylene Microplates (Labcyte, San Jose, CA) (top concentration 50 µM). […] 5 μl of assay buffer was added into the low control. The plate was incubated for 30 minutes at room temperature. Subsequently, 5 μl of 100 µM DiFMUP (6,8-difluoro-4-methylumbelliferyl phosphate) solution (prepared in assay buffer from 10 mM stock in DMSO) was added to the assay plate and incubated for 1 hour at room temperature. For detection, assay plates were read on SpectraMax Microplate Reader (Molecular Devices), with Excitation wavelength=360 nm and Emission wavelength=460 nm. […] Calculated % effects were fit using a 4-parameter algorithm, and EC50 was reported.

The target in assay [2] is human PTPN2 (1-387) (Homo sapiens (Human), UniProt P17706). The experiment in a line: Human PTPN2 Biochemical Assay. The following applies: DiFMUP substrate. How it is done:
Human PTPN2 Biochemical Assay
Test compounds were dissolved in DMSO, and 10-point serial 3-fold dilution series in DMSO were prepared in Echo Qualified 384-well Polypropylene Microplates (Labcyte, San Jose, CA) (top concentration 50 µM). Assay plates (384-well low volume black plates; Corning #3820, Corning, NY) were prepared by dispensing 50 nL of test compound, and DMSO (for high and low controls) by ECHO acoustic dispenser (Labcyte, San Jose CA). This was followed by addition of 5 μL of 0.2 nM human PTPN2 (1-387) solution (prepared in the assay buffer, 50 mM Tris pH 7.4, 150 mM NaCl, 0.01% Tween20, 0.5 mM dithiothreitol) to all wells except the low control. 5 μl of assay buffer was added into the low control, then the plate was incubated for 30 minutes at room temperature. Subsequently, 5 μl of 100 µM DiFMUP (6,8-difluoro-4-methylumbelliferyl phosphate) solution (prepared in assay buffer from 10 mM stock in DMSO) was added to the assay plate and incubated for 1 hour at room temperature. For detection, assay plates were read on SpectraMax Microplate Reader (Molecular Devices), with Excitation wavelength=360 nm and Emission wavelength=460 nm. Test compound effects were normalized to the window defined by the controls, DMSO/buffer, and DMSO/50 pM human PTPN2. Calculated % effects were fit using a 4-parameter algorithm, and EC50 was reported.

Sequence of human PTPN1 (1-435) (P18031 whole entry): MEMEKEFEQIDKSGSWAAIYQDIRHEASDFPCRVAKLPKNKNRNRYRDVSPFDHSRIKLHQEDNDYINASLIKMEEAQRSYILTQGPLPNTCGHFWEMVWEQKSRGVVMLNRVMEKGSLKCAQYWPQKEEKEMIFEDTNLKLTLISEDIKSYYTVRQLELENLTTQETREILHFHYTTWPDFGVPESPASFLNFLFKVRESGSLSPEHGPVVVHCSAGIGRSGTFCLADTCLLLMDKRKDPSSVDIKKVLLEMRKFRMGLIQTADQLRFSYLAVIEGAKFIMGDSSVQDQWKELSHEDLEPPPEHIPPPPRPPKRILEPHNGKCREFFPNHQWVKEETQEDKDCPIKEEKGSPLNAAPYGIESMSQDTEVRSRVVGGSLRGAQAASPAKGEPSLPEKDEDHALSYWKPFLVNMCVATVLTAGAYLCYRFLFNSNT
Sequence of human PTPN2 (1-387) (P17706 other isoform, or with tags, fused parts or gaps): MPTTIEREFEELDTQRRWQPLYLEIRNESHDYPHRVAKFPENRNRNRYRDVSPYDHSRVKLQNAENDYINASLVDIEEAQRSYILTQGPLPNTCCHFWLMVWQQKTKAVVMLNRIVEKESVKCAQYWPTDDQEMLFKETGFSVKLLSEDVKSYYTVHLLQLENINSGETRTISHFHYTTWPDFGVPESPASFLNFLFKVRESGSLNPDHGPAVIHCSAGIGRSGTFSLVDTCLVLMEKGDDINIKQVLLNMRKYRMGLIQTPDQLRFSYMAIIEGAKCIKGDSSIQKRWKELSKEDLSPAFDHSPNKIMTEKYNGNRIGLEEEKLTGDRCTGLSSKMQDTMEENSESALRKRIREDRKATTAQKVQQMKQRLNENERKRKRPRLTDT

A word on the IC50: it is the concentration that gives 50% inhibition. `O=C(NC(c1cccnc1)C(F)(F)F)c1ccc2sc(C(F)(F)P(=O)(O)O)c(Br)c2c1` (single isomer, unassigned) [Compound 222a, (S or R)-((3-bromo-5-((2,2,2-trifluoro-1-(pyridin-3-yl)ethyl)carbamoyl)benzo[b]thiophen-2-yl)difluoromethyl)phosphonic acid]: the figures for the IC50 in assay [1] and in assay [2] were 1620 nM and 1880 nM, respectively.
On the same counts, the results for `O=C(NC(c1cccnc1)C(F)(F)F)c1ccc2sc(C(F)(F)P(=O)(O)O)c(Br)c2c1` (single isomer, unassigned) [Compound 222b, (R or S)-((3-bromo-5-((2,2,2-trifluoro-1-(pyridin-3-yl)ethyl)carbamoyl)benzo[b]thiophen-2-yl)difluoromethyl)phosphonic acid] are 707 nM and 771 nM.
For `CC(NC(=O)c1ccc2sc(C(F)(F)P(=O)(O)O)c(Br)c2c1)c1cccnn1` (single isomer, unassigned) [Compound 225, (R or S)-((3-bromo-5-((1-(pyridazin-3-yl)ethyl)carbamoyl)benzo[b]thiophen-2-yl)difluoromethyl)phosphonic acid], in that order: 2410 nM and 2200 nM.
For `NC(c1cc(OCCCC(F)(F)F)c2sc(C(F)(F)P(=O)(O)O)c(Br)c2c1)C(F)(F)F` (single isomer, unassigned) [Compound 261, (R or S)-((5-(1-amino-2,2,2-trifluoroethyl)-3-bromo-7-(4,4,4-trifluorobutoxy)benzo[b]thiophen-2-yl)difluoromethyl)phosphonic acid], in that order: 2020 nM and 5880 nM.
Consider `NC(=O)c1cc(OCCC2CCCS2(=O)=O)c2sc(C(F)(F)P(=O)(O)O)c(Br)c2c1` (single isomer, unassigned) [Compound 371], for which the half-inhibitory concentration (IC50) in assay [1] is 18 nM; in assay [2], 26.9 nM.
On the same counts, the results for `NC(=O)c1cc(OCCC2CCCS2(=O)=O)c2sc(C(F)(F)P(=O)(O)O)c(Br)c2c1` (single isomer, unassigned) [Compound 372] are 18.2 nM and 19.7 nM.
For `CC1CCS(=O)(=O)C1CCOc1cc(C(N)=O)cc2c(Br)c(C(F)(F)P(=O)(O)O)sc12` (single isomer, unassigned) [Compound 393], in that order: 56.9 nM and 48 nM.
For `CC1CCS(=O)(=O)C1CCOc1cc(C(N)=O)cc2c(Br)c(C(F)(F)P(=O)(O)O)sc12` (single isomer, unassigned) [Compound 394], in that order: 26.1 nM and 34.2 nM.
With `CC1CCS(=O)(=O)C1CCOc1cc(C(N)=O)cc2c(Br)c(C(F)(F)P(=O)(O)O)sc12` (single isomer, unassigned) [Compound 395], the IC50 in assay [1] was 21.2 nM; in assay [2], 17.3 nM.
On the same counts, the results for `CS(=N)(=O)Cc1cc(OCCCC(F)(F)F)c2sc(C(F)(F)P(=O)(O)O)c(Br)c2c1` (single isomer, unassigned) [Compound 411, ((3-bromo-5-(((R or S)-methylsulfonimidoyl)methyl)-7-(4,4,4-trifluorobutoxy)benzo[b]thiophen-2-yl)difluoromethyl)phosphonic acid] are 299 nM and 251 nM.
As for `NC(=O)c1cc(OCCC2CCNS2(=O)=O)c2sc(C(F)(F)P(=O)(O)O)c(Br)c2c1` (single isomer, unassigned) [Compound 461, (R or S)-((3-bromo-5-carbamoyl-7-(2-(1,1-dioxidoisothiazolidin-5-yl)ethoxy)benzo[b]thiophen-2-yl)difluoromethyl)phosphonic acid], the results for the half-maximal inhibitory concentration (IC50) in assay [1] and in assay [2] were 21.1 nM and 22.5 nM, respectively.
For `NC(=O)c1cc(OCCC2CCNS2(=O)=O)c2sc(C(F)(F)P(=O)(O)O)c(Br)c2c1` (single isomer, unassigned) [Compound 462], in that order: 12.5 nM and 12.1 nM.
On the same counts, the results for `O=C(Nc1ccccc1)c1ccc2sc(C(F)(F)P(=O)(O)O)c(Br)c2c1` [Compound 1, ((3-bromo-5-(phenylcarbamoyl)benzo[b]thiophen-2-yl)difluoromethyl)phosphonic acid] are 1610 nM and 3010 nM.
On the same counts, the results for `NC(=O)c1ccc2sc(C(F)(F)P(=O)(O)O)c(Br)c2c1` [Compound 2] are 3230 nM and 5320 nM.
Turning to `N#Cc1c(C(F)(F)P(=O)(O)O)sc2ccc(C(=O)Nc3ccccc3)cc12` [Compound 3, ((3-cyano-5-(phenylcarbamoyl)benzo[b]thiophen-2-yl)difluoromethyl)phosphonic acid], the results for the IC50 in assay [1] and in assay [2] were 1130 nM and 1020 nM, respectively.
With `N#Cc1c(C(F)(F)P(=O)(O)O)sc2ccc(C(=O)NC3CC(F)(F)C3)cc12` [Compound 4], the figures for the IC50 in assay [1] and in assay [2] were 1440 nM and 1200 nM, respectively.
On the same counts, the results for `COc1cccc(NC(=O)c2ccc3sc(C(F)(F)P(=O)(O)O)c(C#N)c3c2)c1` [Compound 5] are 1130 nM and 896 nM.
On the same counts, the results for `N#CCCNC(=O)c1ccc2sc(C(F)(F)P(=O)(O)O)c(C#N)c2c1` [Compound 6] are 6050 nM and 4640 nM.
On the same counts, the results for `COCCN(CCOC)C(=O)c1ccc2sc(C(F)(F)P(=O)(O)O)c(Br)c2c1` [Compound 7, ((5-(bis(2-methoxyethyl)carbamoyl)-3-bromobenzo[b]thiophen-2-yl)difluoromethyl)phosphonic acid] are 764 nM and 1330 nM.
As to `N#Cc1cccc2c(Br)c(C(F)(F)P(=O)(O)O)sc12` [Compound 8, ((3-bromo-7-cyanobenzo[b]thiophen-2-yl)difluoromethyl)phosphonic acid], the figures for the IC50 in assay [1] and in assay [2] were 3270 nM and 3940 nM, respectively.
`O=C(Nc1ccccc1)c1ccc2sc(C(F)(F)P(=O)(O)O)c(C(F)(F)F)c2c1` [Compound 9, (difluoro(5-(phenylcarbamoyl)-3-(trifluoromethyl)benzo[b]thiophen-2-yl)methyl)phosphonic acid]: the IC50 came out at 2200 nM in assay [1] and 2130 nM in assay [2].
For `O=C(NCc1cccnn1)c1cc(OCCCC(F)(F)F)c2sc(C(F)(F)P(=O)(O)O)c(Br)c2c1` [Compound 10, ((3-bromo-5-((pyridazin-3-ylmethyl)carbamoyl)-7-(4,4,4-trifluorobutoxy)benzo[b]thiophen-2-yl)difluoromethyl)phosphonic acid], in that order: 4.61 nM and 5.79 nM.
For `O=C(NCc1cccnc1)c1ccc2sc(C(F)(F)P(=O)(O)O)c(Br)c2c1` [Compound 11], in that order: 2160 nM and 3050 nM.
On the same counts, the results for `N#CCCNC(=O)c1ccc2sc(C(F)(F)P(=O)(O)O)c(Br)c2c1` [Compound 12] are 5250 nM and 8890 nM.
For `O=C(NC(c1ccccc1F)C(F)(F)F)c1ccc2sc(C(F)(F)P(=O)(O)O)c(Br)c2c1` (centres unmarked) [Compound 13], the IC50 worked out at 4110 nM in assay [1] and 5300 nM in assay [2].
As to `O=C(N[C@@H]1CCC[C@H]1OCc1ccccc1)c1ccc2sc(C(F)(F)P(=O)(O)O)c(Br)c2c1` [Compound 14], the IC50 in assay [1] worked out at 2690 nM; in assay [2], 4120 nM.
In assay [2], `O=C(NCc1cccnn1)c1ccc2sc(C(F)(F)P(=O)(O)O)c(Br)c2c1` [Compound 31] returned an IC50 of 1460 nM.
Same read-out and setting: under `CC(C)(O)CCOc1cc(C(=O)NCc2cccnn2)cc2c(Br)c(C(F)(F)P(=O)(O)O)sc12` [Compound 169] stands 133 nM.
Still for that read-out and setting: under `CNC(=O)COc1cc(C(N)=O)cc2c(Br)c(C(F)(F)P(=O)(O)O)sc12` [Compound 246] stands 1170 nM; under `NC(=O)c1cc(CCCCC(F)(F)F)c2sc(C(F)(F)P(=O)(O)O)c(Br)c2c1` [Compound 296, ((3-bromo-5-carbamoyl-7-(5,5,5-trifluoropentyl)benzo[b]thiophen-2-yl)difluoromethyl)phosphonic acid], 241 nM.
In turn, `CCCCSc1cc(C(N)=O)cc2c(Br)c(C(F)(F)P(=O)(O)O)sc12` [Compound 309] had an IC50 in assay [2] of 335 nM.
Still for that read-out and setting: under `Cc1nnc(-c2cc(OCCCC(F)(F)F)c3sc(C(F)(F)P(=O)(O)O)c(Br)c3c2)[nH]1` [Compound 417, ((3-bromo-5-(5-methyl-4H-1,2,4-triazol-3-yl)-7-(4,4,4-trifluorobutoxy)benzo[b]thiophen-2-yl)difluoromethyl)phosphonic acid] stands 9.08 nM.
The same measure, in the same setting: under `O=P(O)(O)C(F)(F)c1sc2c(OCCCC(F)(F)F)cc(O)cc2c1Br` [Compound 419, ((3-bromo-5-hydroxy-7-(4,4,4-trifluorobutoxy)benzo[b]thiophen-2-yl)difluoromethyl)phosphonic acid] stands 345 nM.

These data come from patent US20250059220A1, “SUBSTITUTED BENZOTHIOPHENE DERIVATIVES AND METHODS OF USE THEREOF” (Merck Sharp & Dohme LLC, priority 2021, published 2025).
